# Data: US9278922B2 (ABBVIE INC., priority 2009, dated 2016)
# Test system: HCV 1b-Con-1 replicon
# Experiment: HCV 1b-Con-1 replicon assay (luciferase reporter gene, HuH-7 cells)
# Format: cell-based, Hepatitis C virus (HCV) genotype 1b-Con1
# Conditions: Hepatitis C virus, Huh-7, luciferase reporter gene activity in the replicon, in the presence of 5% FBS
row,Compound,EC50
1,"COC(=O)N[C@H](C(=O)N1CCC[C@H]1C(=O)Nc1ccc(CN(Cc2ccc(NC(=O)[C@@H]3CCCN3C(=O)[C@@H](NC(=O)OC)C(C)(C)C)cc2)C2CCCC2)cc1)C(C)(C)C [Example 29, dimethyl[(cyclopentylimino)bis{methanediylbenzene-4,1-diylcarbamoyl(2S)pyrrolidine-2,1-diyl[(2S)-3,3-dimethyl-1-oxobutane-1,2-diyl]}]biscarbamate]",100 to 250 nM
2,"CCC[C@H](NC(=O)OC)C(=O)N1CCC[C@H]1C(=O)Nc1ccc(CN(Cc2ccc(NC(=O)[C@@H]3CCCN3C(=O)[C@H](CCC)NC(=O)OC)cc2)c2ccccc2)cc1 [Example 46, dimethyl [(phenylimino)bis{methanediylbenzene-4,1-diylcarbamoyl(2S)pyrrolidine-2,1-diyl[(2S)-1-oxopentane-1,2-diyl]}]biscarbamate]",1 to 10 nM
3,"COC(=O)N[C@H](C(=O)N1CCC[C@H]1C(=O)Nc1ccc(CN(Cc2ccc(NC(=O)[C@@H]3CCCN3C(=O)[C@H](NC(=O)[C@@H]3CCCO3)c3ccccc3)cc2)c2ccccc2)cc1)C(C)(C)C [Example 87, N-(methoxycarbonyl)-3-methyl-L-valyl-N-[4-({phenyl[4-({1-[(2R)-2-phenyl-2-{[(2S)-tetrahydrofuran-2-ylcarbonyl]amino}acetyl]-L-prolyl}amino)benzyl]amino}methyl)phenyl]-L-prolinamide]",< 1 nM
4,"COC(=O)N[C@H](C(=O)N1CCC[C@H]1C(=O)Nc1ccc(CN(Cc2ccc(NC(=O)[C@@H]3CCCN3C(=O)[C@@H](NC(=O)OC)[C@@H](C)OC)cc2)c2ccccc2)cc1)[C@@H](C)OC [Example 51, dimethyl[(phenylimino)bis{methanediylbenzene-4,1-diylcarbamoyl(2S)pyrrolidine-2,1-diyl[(2S,3R)-3-methoxy-1-oxobutane-1,2-diyl]}]biscarbamate]",1 to 10 nM
5,"CCN(CC)[C@@H](C(=O)N1CCC[C@H]1C(=O)Nc1ccc(CN(Cc2ccc(NC(=O)[C@@H]3CCCN3C(=O)[C@H](NC(=O)OC)c3ccccc3)cc2)c2ccccc2)cc1)c1ccccc1 [Example 75, methyl [(1R)-2-{(2S)-2-[(4-{[{-4-[({(2S)-1-[(2R)-2-(diethylamino)-2-phenylacetyl]pyrrolidin-2-yl}carbonyl)amino]benzyl}(phenyl)amino]methyl}phenyl)carbamoyl]pyrrolidin-1-yl}-2-oxo-1-phenylethyl]carbamate]",< 1 nM
6,"O=C(Nc1ccc(CN(Cc2ccc(NC(=O)[C@@H]3CCCN3C(=O)C(c3ccccc3)N3CC[C@@H](F)C3)cc2)c2ccc(F)cc2)cc1)[C@@H]1CCCN1C(=O)C(c1ccccc1)N1CC[C@@H](F)C1 (single isomer, unassigned) [Example 118]",1 to 10 nM
7,"COC(=O)N[C@H](C(=O)N1CCC[C@H]1/C=C/c1ccc(CN(Cc2ccc(NC(=O)[C@@H]3CCCN3C(=O)[C@@H](NC(=O)OC)C(C)(C)C)cc2)c2ccccc2)cc1)C(C)(C)C [Example 149, N-(methoxycarbonyl)-3-methyl-L-valyl-N-(4-{[{4-[(E)-2-{(2S)-1-[N-(methoxycarbonyl)-3-methyl-L-valyl]pyrrolidin-2-yl}ethenyl]benzyl}(phenyl)amino]methyl}phenyl)-L-prolinamide]",10 to 100 nM
8,"CC[C@H](NC(=O)OC)C(=O)N1CCC[C@H]1C(=O)Nc1ccc(CN(Cc2ccc(NC(=O)[C@@H]3CCCN3C(=O)[C@H](NC(=O)OC)c3ccccc3)cc2)c2ccccc2)cc1 [Example 71, methyl {(1R)-2-[(2S)-2-{[4-({[4-({[(2S)-1-{(2S)-2-[(methoxycarbonyl)amino]butanoyl}pyrrolidin-2-yl]carbonyl}amino)benzyl](phenyl)amino}methyl)phenyl]carbamoyl}pyrrolidin-1-yl]-2-oxo-1-phenylethyl}carbamate]",< 1 nM
9,"CC[C@H](NC(=O)OC)C(=O)N1CCC[C@H]1C(=O)Nc1ccc(CN(Cc2ccc(NC(=O)[C@@H]3CCCN3C(=O)[C@H](CC)NC(=O)OC)cc2)c2ccccc2)cc1 [Example 38, dimethyl [(phenylimino)bis{methanediylbenzene-4,1-diylcarbamoyl(2S)pyrrolidine-2,1-diyl[(2S)-1-oxobutane-1,2-diyl]}]biscarbamate]",1 to 10 nM
10,"COC(=O)N[C@H](C(=O)N1CCC[C@H]1c1nc2cc(CN(Cc3ccc4[nH]c([C@@H]5CCCN5C(=O)[C@@H](NC(=O)OC)C(C)C)nc4c3)c3ccc(F)cc3)ccc2[nH]1)C(C)C [Example 96, methyl [(1S)-1-{[(2S)-2-(5-{[(4-fluorophenyl)({2-[(2S)-1-{(2S)-2-[(methoxycarbonyl)amino]-3-methylbutanoyl}pyrrolidin-2-yl]-1H-benzimidazol-5-yl}methyl)amino]methyl}-1H-benzimidazol-2-yl)pyrrolidin-1-yl]carbonyl}-2-methylpropyl]carbamate]",< 1 nM
11,"COC(=O)N[C@H](C(=O)N1CCC[C@H]1c1nc2cc(CN(Cc3ccc4[nH]c([C@@H]5CCCN5C(=O)[C@@H](NC(=O)OC)[C@H]5CCOC5)nc4c3)c3ccccc3)ccc2[nH]1)[C@H]1CCOC1 [Example 78, dimethyl {(phenylimino)bis[methanediyl-1H-benzimidazole-5,2-diyl(2S)pyrrolidine-2,1-diyl{(1S)-2-oxo-1-[(3R)-tetrahydrofuran-3-yl]ethane-2,1-diyl}]}biscarbamate]",< 1 nM
12,"O=C(Nc1ccc(CN(Cc2ccc(NC(=O)[C@@H]3C[C@@H]4CCC[C@@H]4N3C(=O)[C@@H](c3ccccc3)N3CCCCC3)cc2)c2ccc(F)cc2)cc1)[C@@H]1C[C@@H]2CCC[C@@H]2N1C(=O)[C@@H](c1ccccc1)N1CCCCC1 [Example 124, (2S,3aS,6aS,2′S,3a′S,6a′S)-N,N′-{[(4-fluorophenyl)imino]bis(methanediylbenzene-4,1-diyl)}bis{1-[(2R)-2-phenyl-2-piperidin-1-ylacetyl]octahydrocyclopenta[b]pyrrole-2-carboxamide}]",< 1 nM
13,"O=C(Nc1ccc(CN(Cc2ccc(NC(=O)[C@@H]3CCCN3C(=O)O[C@H]3CCOC3)cc2)c2ccccc2)cc1)[C@@H]1CCCN1C(=O)O[C@H]1CCOC1 [Example 150, di[(3S)-tetrahydrofuran-3-yl](2S,2′S)-2,2′-[(phenylimino)bis(methanediylbenzene-4,1-diylcarbamoyl)]dipyrrolidine-1-carboxylate]",10 to 100 nM
14,CN(C)[C@@H](C(=O)N1CCC[C@H]1C(=O)Nc1ccc(CN(Cc2ccc(NC(=O)[C@@H]3CCCN3C(=O)[C@@H](c3ccccc3)N(C)C)cc2)c2ccccc2)cc1)c1ccccc1 [Example 2],< 1 nM
15,"COC(=O)N[C@H](C(=O)N1CCC[C@H]1C(=O)Nc1ccc(CN(Cc2ccc(NC(=O)[C@@H]3CCCN3C(=O)[C@@H](NC(=O)OC)c3ccccc3)cc2)c2ccccc2)cc1)c1ccccc1 [Example 11, Dimethyl (1S,1′S)-2,2′-((2S,2′S)-2,2′-(4,4′-(phenylazanediyl)bis(methylene)bis(4,1-phenylene)bis(azanediyl))bis(oxomethylene)bis(pyrrolidine-2,1-diyl))bis(2-oxo-1-phenylethane-2,1-diyl)dicarbamate]",< 1 nM
16,"COC(=O)N[C@H](C(=O)N1CCC[C@H]1C(=O)Nc1ccc(CN(Cc2ccc(NC(=O)[C@@H]3CCCN3C(=O)[C@@H](c3ccccc3)N3CCOCC3)cc2)c2ccccc2)cc1)C(C)(C)C [Example 58, N-(methoxycarbonyl)-3-methyl-L-valyl-N-[4-({[4-({1-[(2R)-2-morpholin-4-yl-2-phenylacetyl]-L-prolyl}amino)benzyl](phenyl)amino}methyl)phenyl]-L-prolinamide]",< 1 nM
17,COC(=O)N[C@H](C(=O)N1CCC[C@H]1C(=O)Nc1ccc(CN(Cc2ccc3[nH]c([C@@H]4CCCN4C(=O)[C@@H](NC(=O)OC)C(C)C)nc3c2)c2ccccc2)cc1)C(C)C [Example 20],< 1 nM
18,C=CC[C@H]1CC[C@@H](C(=O)Nc2ccc(CN(Cc3ccc(NC(=O)[C@@H]4CC[C@H](CC=C)N4C(=O)[C@@H](NC(=O)OC)C(C)(C)C)cc3)c3ccccc3)cc2)N1C(=O)[C@@H](NC(=O)OC)C(C)(C)C [Example 64],< 1 nM
19,"CC(C)[C@@H](C(=O)N1CCC[C@H]1C(=O)Nc1ccc(CN(Cc2ccc(NC(=O)[C@@H]3CCCN3C(=O)[C@H](C(C)C)N3CCCC3=O)cc2)c2ccccc2)cc1)N1CCCC1=O [Example 42, (2S,2′S)-N,N′-[(phenylimino)bis(methanediylbenzene-4,1-diyl)]bis {1-[(2S)-3-methyl-2-(2-oxopyrrolidin-1-yl)butanoyl]pyrrolidine-2-carboxamide}]",< 1 nM
20,COC(=O)N[C@H](C(=O)N1CC(F)(F)C[C@H]1C(=O)Nc1ccc(CN(Cc2ccc(NC(=O)[C@@H]3CC(F)(F)CN3C(=O)[C@@H](NC(=O)OC)C(C)(C)C)cc2)c2ccccc2)cc1)C(C)(C)C [Example 73],< 1 nM
21,"CC(C)(C)[C@H](Nc1nccs1)C(=O)N1CCC[C@H]1C(=O)Nc1ccc(CN(Cc2ccc(NC(=O)[C@@H]3CCCN3C(=O)[C@@H](Nc3nccs3)C(C)(C)C)cc2)c2ccccc2)cc1 [Example 121, (2S,2′S)-N,N′-[(phenylimino)bis(methanediylbenzene-4,1-diyl)]bis{1-[(2S)-3,3-dimethyl-2-(1,3-thiazol-2-ylamino)butanoyl]pyrrolidine-2-carboxamide}]",< 1 nM
22,"CCN(CC)[C@@H](C(=O)N1CCC[C@H]1C(=O)Nc1ccc(CN(Cc2ccc(NC(=O)[C@@H]3CCCN3C(=O)[C@@H](NC(=O)OC)[C@@H](C)OC)cc2)c2ccc(F)cc2)cc1)c1ccccc1 [Example 84, N-(methoxycarbonyl)-O-methyl-L-threonyl-N-[4-({[4-({1-[(2R)-2-(diethylamino)-2-phenylacetyl]-L-prolyl}amino)benzyl](4-fluorophenyl)amino}methyl)phenyl]-L-prolinamide]",< 1 nM
23,COC(=O)N[C@H](C(=O)N1CC[C@H](C)[C@H]1C(=O)Nc1ccc(CN(Cc2ccc(NC(=O)[C@@H]3[C@@H](C)CCN3C(=O)[C@@H](NC(=O)OC)C(C)(C)C)cc2)c2ccc(F)cc2)cc1)C(C)(C)C [Example 145],< 1 nM
24,"CCN(CC)[C@@H](C(=O)N1CCC[C@H]1c1nc2cc(CN(Cc3ccc4[nH]c([C@@H]5CCCN5C(=O)[C@@H](c5ccccc5)N(CC)CC)nc4c3)c3ccc(F)cc3)ccc2[nH]1)c1ccccc1 [Example 95, N,N-bis[(2-{(2S)-1-[(2R)-2-(diethylamino)-2-phenylacetyl]pyrrolidin-2-yl}-1H-benzimidazol-5-yl)methyl]-4-fluoroaniline]",< 1 nM
